pIC50: −log10 of the molar value.
Target: T1, renin (Homo sapiens, UniProt P00797)
T1 sequence (P00797 67-406): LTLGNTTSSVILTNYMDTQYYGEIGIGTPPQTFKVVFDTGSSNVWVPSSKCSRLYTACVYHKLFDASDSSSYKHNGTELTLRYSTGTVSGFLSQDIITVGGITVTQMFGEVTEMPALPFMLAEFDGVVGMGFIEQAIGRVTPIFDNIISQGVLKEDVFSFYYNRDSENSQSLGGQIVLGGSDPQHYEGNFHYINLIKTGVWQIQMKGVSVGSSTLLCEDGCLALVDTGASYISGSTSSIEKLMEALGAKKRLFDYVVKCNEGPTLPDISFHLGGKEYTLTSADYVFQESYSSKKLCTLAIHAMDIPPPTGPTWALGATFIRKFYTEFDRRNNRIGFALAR
Experiment: in vitro renin inhibitory activity, radioimmunoassay for angiotensin I
Type: biochemical
Details: for inhibition at 0.01 µM: at 10^-8 molar concentration of test compound, read-out: In Vitro Activity, percent inhibition at 10^-8; for pIC50: renin incubated two hours at 37° with angiotensinogen, values marked * are IC50, read-out: In Vitro Activity, IC50 (molar concentration causing 50% inhibition of renin activity)
Method: The effectiveness of the aforementioned compounds is determined by a test for in vitro renin inhibitory activity. This activity is determined by a standard radioimmunoassay for angiotensin I. In this assay the enzyme, renin, incubated for two hours at 37° in the presence of a substrate, angiotensinogen, generates the product, angiotensin I. Test compounds are added to the incubation mixture. Relative activity is reported as the percent inhibition at the specified molar concentration or as the IC50, which is the molar concentration of test compound causing a 50% inhibition of the renin activity.

Compound | pIC50 | also measured
CC(C)CC(=O)NC(C(=O)N[C@@H](Cc1c[nH]cn1)C(=O)N[C@@H](CC1CCCCC1)[C@@H](O)[C@@H](O)CC(C)C)S(=O)(=O)C(C)C (some centres unmarked) [IVA-NHCH(SO2 CH(CH3)2)CO--HIS--CAD, IVA-NHCH(SO2 CH(CH3)2)CO-HIS-CAD] |  | inhibition at 0.01 µM: 8.2%
CC(C)CC(=O)NC(SC(C)C)C(=O)N[C@@H](Cc1c[nH]cn1)C(=O)N[C@@H](CC1CCCCC1)[C@@H](O)[C@@H](O)CC(C)C (single isomer, unassigned) [IVA-NHCH(SCH(CH3)2)CO--HIS--CAD (Isomer A), IVA-NHCH(SCH(CH3)2)CO-HIS-CAD (Isomer A)] |  | inhibition at 0.01 µM: 10.5%
CC(C)CC(=O)NC(Sc1ccccc1)C(=O)N[C@@H](Cc1c[nH]cn1)C(=O)N[C@@H](CC1CCCCC1)[C@@H](O)[C@@H](O)CC(C)C (some centres unmarked) [IVA-NHCH(SPh)CO--HIS--CAD, IVA-NHCH(SPh)CO-HIS-CAD] | 8.82 | 
CC[C@H](C)CNC(=O)C[C@H](O)[C@H](CC(C)C)NC(=O)[C@H](CC(C)C)NC(=O)C(NC(=O)OC(C)(C)C)SC(C)C (some centres unmarked) [BOC--NHCH(SCH(CH3)2)CO--LEU--STA--MBA, BOC-NHCH(SCH-(CH3)2)CO-LEU-STA-MBA] |  | inhibition at 1 µM (at 10^-6 molar concentration of test compound, read-out: In Vitro Activity, percent inhibition at 10^-6): 23%
IVA-NHCH-(OPh)CO-HIS-CAD [IVA-NHCH(OPh)CO--HIS--CAD] | 5.52 | 
CC[C@H](C)CNC(=O)C[C@H](O)[C@H](CC(C)C)NC(=O)[C@H](CC(C)C)NC(=O)C(NC(=O)CC(C)C)Sc1ccccc1 (single isomer, unassigned) [IVA-NHCH(SPh)CO--LEU--STA--MBA (Isomer A), IVA-NHCH(SPh)-CO-LEU-STA-MBA] | 6.85 | 
IVA-NHCH(NHPh)CO-LEU-STA-MBA [IVA-NHCH(NHPh)CO--LEU--STA--MBA] |  | In Vitro Activity, percent inhibition at 10^-6 (at 10^-6 molar concentration of test compound): 24%
IVA-NHCH-(SCH(CH3)2)CO-HIS-CAD (Isomer B) [IVA-NHCH(SCH(CH3)2)CO--HIS--CAD (Isomer B)] | 8.24 | 
IVA-NHCH(N(CH3)Ph)CO-HIS-CAD [IVA-NHCH(N(CH3)Ph)CO--HIS--CAD] | 8.46 | 
CC[C@H](C)CNC(=O)C[C@H](O)[C@H](CC(C)C)NC(=O)[C@H](CC(C)C)NC(=O)C(NC(=O)CC(C)C)Sc1ccccc1 (single isomer, unassigned) [IVA-NHCH(SPh)CO--LEU--STA--MBA (Mixture of diastereomers), IVA-NHCH(SPh)-CO-LEU-STA-MBA] | 6.72 | 
IVA-NHCH(NHPh)CO-HIS-CAD [IVA-NHCH(NHPh)CO--HIS--CAD] | 7.89 | 

Source: patent publication US5221667A, “Renin inhibiting peptides having an α-heteroatom amino acid at the P3 position” (Warner-Lambert Company, priority 1990, dated 1993)
